In data set [1] the test system is Frings audiogenic seizure-susceptible mouse. Description: Frings audiogenic seizure assay (protection against sound-induced tonic hindlimb extension). To be noted: Mus musculus, po. It counts as in vivo. The procedure:
The anticonvulsant activity of compound S ((S)-(+)-2,2-dimethylcyclopropane-carboxamide) was tested using the Frings audiogenic seizure-susceptible mouse. […] Compound S, which is a solution at 300 mg/kg and a suspension at 600 mg/kg, was administered to the mice at the doses indicated in Tables 1-3. Compound S was obtained from Sigma-Aldrich Chemical Co. (Aldrich catalog number: 43,463-9).
At the time of testing, individual mice were placed into a round Plexiglas chamber and exposed to a sound stimulus of 110 decibels, 11 kHz, for 20 seconds. Mice not displaying tonic hindlimb extensions upon exposure to the sound stimulus were considered protected. In addition, the seizure score for each mouse was recorded as: (1) running for less than 10 seconds; (2) running for greater than 10 seconds; (3) clonic activity of limbs and/or vibrissae; (4) forelimb extension/hindlimb flexion; and (5) hindlimb extension. The average seizure score was calculated for each group of mice used in the dose-response study.
The anticonvulsant activity of compounds I, W, X, and AA was tested using the Frings audiogenic seizure-susceptible mouse model as described in Example 23. […] The therapeutic index relates to separation between therapeutic efficacy and CNS toxicity as measured by motor impairment in the rotarod performance test.

For data set [2], the system named is male Swiss-Webster mice. Kind of data set: Rotarod impairment test before MES testing. It counts as in vivo, mouse. To be noted: 300 mg/kg p.o. The procedure:
(§1) Test compounds (Compound S, Compound W, the S-enantiomer of Compound AA, the R-enantiomer of Compound AA, Compound HH, Compound JJ, and Compound MM) were dissolved in saline containing 0.5% methylcellulose. To determine time to peak effect, 300 mg/kg of each of the test compounds was suspended in 0.5% methylcellulose in saline and administered orally to a group of 20 mice. For comparative purposes, isovaleramide was also tested. At various times (0.25, 0.5, 1, 2, and 4 hours) after p.o. administration, individual mice were placed on the rotarod and tested for their ability to maintain balance on a rotating (6 rpm) 2.5-cm diameter knurled rod for 60 seconds. Mice that fell three times in this 60-second trial were considered impaired.
For orientation: Falling from the rotarod earlier than controls is read as motor impairment.

For data set [3], the system named is male Swiss-Webster mice. Description: Maximal electroshock (MES)-induced tonic extension seizure test. To be noted: for # P/# T (protected/tested): 300 mg/kg p.o. It counts as in vivo, mouse. On the procedure: In the MES test, a substance is administered orally (p.o.) and is tested for efficacy against maximal electroshock (MES)-induced tonic extension seizures. Adult male Swiss-Webster mice (each 20-25 g of body weight) were used. The mice were housed in Association for the Assessment and Accreditation of Laboratory Animal Care-approved facilities under a constant 12-hour light/dark cycle with a constant temperature of 21° C.-23° C. and a relative humidity of 30% to 50%. All animals were permitted free access to standard laboratory chow (Prolab RMH 3000; PMI Nutrition International, LLC, Brentwood, Mo.) and water, except when removed from their home cages for testing. All mice were handled in a manner consistent with the recommendations in the National Research Council Publication Guide for the Care and Use of Laboratory Animals.
as §1
Following rotarod testing, the mice were tested in the maximal electroshock (MES)-induced tonic extension seizures test. For this test, a drop of electrolyte solution (0.5% butacaine sulfate in 0.9% saline) was placed on the eyes of each mouse prior to placement of corneal electrodes. The mice were restrained by gripping the loose skin on their dorsal surface and saline-coated corneal electrodes were held lightly against the two corneas. Each mouse received an electrical stimulation (50 mAmp, 50 Hz current, 0.2 sec) delivered through a silver-coated corneal electrode using an electroshock machine as originally described by Woodbury and Davenport (Arch Int. Pharmacodyn. Ther., 92:97-104, 1952). […] A tonic seizure was defined as a hindlimb extension in excess of 90 degrees from the plane of the body. Results were treated in a quantal manner. […] ED50's (the effective dose at which 50% of the mice were protected) were determined for Compounds W and HH by administering various doses (30, 100, 300 mg/kg) at the previously determined time to peak effect, as shown in Table 11.

Another data set concerns Frings mice. Kind of data set: Rotarod test of motor impairment (toxicity) in the Frings study. It counts as in vivo. To be noted: for Therapeutic Index: Frings, mouse, in vivo, po. The procedure:
At each dose, the mice were also tested on a rotarod for testing of motor impairment (toxicity). Testing for motor impairment on the rotarod involved placing a mouse for a three-minute trial period on a one-inch diameter rod rotating at six revolutions per minute. If the mouse fell off of the rotating rod three times within the three-minute time period, the dose was considered a toxic response.
The therapeutic index relates to separation between therapeutic efficacy and CNS toxicity as measured by motor impairment in the rotarod performance test.

The conditions of data set [4]: humans, cited from earlier work.
The mark [5] stands for this setting: Table 5, read-out: ED50 Oral Administration.

Where two headings read alike, the source gives them in different places. Some results are limits rather than exact numbers.

For `CC(C)C(C)C(N)=O` (racemic) [AA (cis and trans mixture)], the ED50 in data set [1] (setting [5]) was determined as 140 mg/kg.

In the case of `CC(C)[C@H](C)C(N)=O` [AA (R- enantiomer)], the “# I/# T (impaired/tested)” value in the data set on male Swiss-Webster mice [2] (0.25 hours) was 3/4; with male Swiss-Webster mice [2] (0.5 hours) it was 3/4; in the data set with male Swiss-Webster mice [2] (1 hour), 0/4; in the data set on male Swiss-Webster mice [2] (2 hours), 3/4. The ED50 in data set [1] (setting [5]) is 84.2 mg/kg. Also, the “# P/# T (protected/tested)” value with male Swiss-Webster mice [3] (0.25 hours), in the data set on male Swiss-Webster mice [3] (0.5 hours), in the data set on male Swiss-Webster mice [3] (1 hour), with male Swiss-Webster mice [3] (2 hours) and in the data set with male Swiss-Webster mice [3] (4 hours) was 0/4 in each case. Besides, the “Therapeutic Index” value with Frings mice is reported as >4-fold.

In the case of `CC(C)[C@@H](C)C(N)=O` [AA (S- enantiomer)], the “# I/# T (impaired/tested)” value was 0/4 with male Swiss-Webster mice [2] (0.25 hours); 1/4 with male Swiss-Webster mice [2] (0.5 hours); 0/4 in the data set on male Swiss-Webster mice [2] (1 hour); 0/4 in the data set with male Swiss-Webster mice [2] (2 hours); 0/4 in the data set on male Swiss-Webster mice [2] (4 hours). Further, the ED50 in data set [1] (setting [5]) was determined as 84.1 mg/kg. The “# P/# T (protected/tested)” value was 3/4 in the data set on male Swiss-Webster mice [3] (0.25 hours); 0/4 in the data set with male Swiss-Webster mice [3] (0.5 hours); 1/4 with male Swiss-Webster mice [3] (1 hour); 1/4 in the data set on male Swiss-Webster mice [3] (2 hours); 0/4 in the data set on male Swiss-Webster mice [3] (4 hours). In the data set on Frings mice, the “Therapeutic Index” value is on record as >4-fold.

In the case of `CC(C)CC(=O)NCC(N)=O` [Compound I], the ED50 in data set [1] (setting [5]) is less than 1000 mg/kg.

For the compound `CC(C)C(C)(C)C(N)=O` [Compound JJ], the “# I/# T (impaired/tested)” value is given as 1/4 in the data set with male Swiss-Webster mice [2] (0.25 hours); 2/4 with male Swiss-Webster mice [2] (0.5 hours); 1/4 in the data set with male Swiss-Webster mice [2] (1 hour); 0/4 with male Swiss-Webster mice [2] (2 hours); 0/4 with male Swiss-Webster mice [2] (4 hours). In addition, the “# P/# T (protected/tested)” value with male Swiss-Webster mice [3] (0.25 hours) was 1/4; in the data set with male Swiss-Webster mice [3] (0.5 hours) it was 0/4; in the data set with male Swiss-Webster mice [3] (1 hour) it was 0/4; in the data set on male Swiss-Webster mice [3] (2 hours) it was 0/4; with male Swiss-Webster mice [3] (4 hours), 0/4.

On to `C[C@H](C(N)=O)C(C)(C)C` [Compound MM], for which the “# I/# T (impaired/tested)” value in the data set with male Swiss-Webster mice [2] (0.25 hours) was 2/4; with male Swiss-Webster mice [2] (0.5 hours) it was 3/4; with male Swiss-Webster mice [2] (1 hour), 4/4; in the data set on male Swiss-Webster mice [2] (2 hours), 3/4; with male Swiss-Webster mice [2] (4 hours), 3/4. Moreover, the “# P/# T (protected/tested)” value in the data set with male Swiss-Webster mice [3] (0.25 hours) is given as 0/4; in the data set on male Swiss-Webster mice [3] (0.5 hours), 1/4; with male Swiss-Webster mice [3] (1 hour), 2/4; in the data set with male Swiss-Webster mice [3] (2 hours) it was 3/4; in the data set on male Swiss-Webster mice [3] (4 hours) it was 3/4.

For `C[C@H]1CC[C@H](C(N)=O)CC1` [Compound W, trans-4-methylcyclohexanecarboxamide], in data set [1] (setting [5]), the ED50 was determined as 164 mg/kg. For the same compound, the “ED50 Oral Administration” value in the data set on male Swiss-Webster mice [3] (p.o., at time to peak effect, MES) is on record as “Inactive at 300 mg/kg”. Further, the “Therapeutic Index” value in the data set with Frings mice is >4-fold.

As for `CC1CCC(CC(N)=O)CC1` (stereo not shown) [Compound X, 2-(4-methylcyclohexyl)acetamide], in data set [1] (setting [5]), the ED50 stood at 86.4 mg/kg. Also, the “Therapeutic Index” value in the data set on Frings mice was >6-fold.

In the case of `CC(C)CC(N)=O` [Isovaleramide, isovaleramide], the ED50 came out at 206 mg/kg in data set [1] (Table 4, read-out: ED50) and 913 mg/kg with male Swiss-Webster mice [3] (Mus musculus, po, at time to peak effect, MES, read-out: ED50 Oral Administration). Besides, the half-life result in data set [4] (oral, doses ranging from 100 mg to 1600 mg) is recorded as “about 2.5 hours”. In addition, in data set [4] (orally administered), the absorption entry is “readily absorbed from the gastrointestinal tract”. Moreover, the “separation between efficacy and CNS toxicity” value with Frings mice (as measured by rotarod impairment, p.o.) is on record as 5 fold.
